“Also recorded” adds a separate entry of the source.
Legend:
[1] = tested on: ovarian cancer OVCAR8 cells; test: Cell proliferation assay (MTT), OVCAR8 cells; format: cell-based, Human; settings: single agents and combinations
Procedure: (§1) Cell Proliferation Assay (MTT)
(§2) The cell proliferation assay was performed as described previously in Sun et al., Bioorg Med Chem Lett, 2004, Vol. 14, pp. 2041-2046. Briefly, 50 μl aliquots of medium with different concentrations of compounds were added to 96-well plates. All compound concentrations were tested in triplicate. Another 50 μl of the cell stock (1×10^5 cells/ml of media) was dispensed into each test well and the plates were incubated at 37° C. in a CO2 incubator for 3 days. Following the incubation period, 15 μl of the dye solution was added to each well and the plates were then incubated at 37° C. for 4 hours, followed by the addition of 100 μl per well of the solubilization solution. The plates were incubated at 37° C. until the contents in each well became a uniform-colored solution. The absorbance was measured and recorded at 570 nm by a Victor Plate Reader.
(§3) The cell proliferation assay (Promega, Madison, Wis.) was performed as described in Sun et al., Bioorg Med Chem Lett, 2004, Vol. 14, pp. 2041-2046. The absorbance was measured and recorded at 570 nm by a Victor Plate Reader (PerkinElmer, Boston, Mass.).

[2] = tested on: pancreatic cancer CFPAC-1 cells; test: Cell proliferation assay (MTT), CFPAC-1 cells; format: cell-based, Human; settings: single agents and combinations
Procedure: as §1, §2, §3

[3] = tested on: colonrectal cancer HT-29 cells; test: Cell proliferation assay (MTT), HT-29 cells; format: cell-based, Human; settings: single agents and combinations
Procedure: as §1, §2, §3

lung cancer A549 cells [4] = test: Cell proliferation assay (MTT), A549 cells; format: cell-based
Procedure: (§4) Cell Proliferation Assay (MTT) The cell proliferation assay (Promega, Madison, Wis.) was performed as described in Sun et al., Bioorg Med Chem Lett, 2004, Vol. 14, pp. 2041-2046. The absorbance was measured and recorded at 570 nm by a Victor Plate Reader (PerkinElmer, Boston, Mass.).

[5] = tested on: hepatoma HB-8064 (Hep3B) cells; test: Cell proliferation assay (MTT), HB-8064 cells; format: cell-based
Procedure: as §4

hepatoma HTB-52 cells = test: Cell proliferation assay (MTT), HTB-52 cells; format: cell-based; settings: single agents and combinations
Procedure: as §4

[6] = tested on: pancreatic carcinoid BON tumors; test: In vivo tumor growth and treatment, BON tumors; set-up: species or system nude mice; settings: FIG. 43
Procedure: In Vivo Tumor Growth and Treatment
All mice were monitored weekly. Tumor volumes were measured at 11 days post-implantation and bodyweights taken once a week. Tumors were weighed and photographed when experiments were over.
After being harvested during exponential growth phase, cells were washed 3 times with ice-cold PBS and then re-suspended in ice-cold PBS at a cell density of 4×10^7 cells/ml. […] Tumor-carrying mice were separated into four groups (n=8-10) for further treatment using s.c. injections that was applied in the flank opposite of the tumors. A control group was injected with PBS, and three tested groups were treated with compounds. One group received conjugate COL-SST (2 mg/kg) and one group received 200 mg/kg of VPA. The last group was treated with 100 mg/kg of VPA in combination with 1 mg/kg of COL-SST. All mice were injected once a day, five times a week. Tumor volumes were measured and bodyweights taken once a week.
After being harvested during their exponential growth phase, cells were washed 3 times with ice-cold PBS and then re-suspended in ice-cold PBS at a cell density of 4×10^7 cells/ml. […] Tumor-carrying mice were separated into four groups (n=8-10) for further treatment using s.c. injections that were applied in the flank opposite to the tumors. […] Tumor volumes were measured and bodyweights taken once a week.

[7] = tested on: gene expression in SCLC DMS-53 cells; test: RT-PCR / real-time PCR gene expression, DMS-53 cells; format: cell-based
Procedure: (§5) RT-PCR, Real-Time PCR RT-PCR was performed on total RNA that was isolated from tumor cells as described in the protocol (Invitrogen, Carlsbad, Calif.). All primers for SST, BN, and PACAP receptors were obtained from previously published reports, such as Sun et al. 2011. The PCR amplification is regularly 35 cycles, with more or less cycles due to the difference in RNA abundance of these investigated genes. Primers used for real-time PCR analyses were identical to those described above. Real-time PCR assays were performed as described in Sun et al 2011. β-actin was used as the internal control and results were calculated by applying 2^−ΔΔCT methods as described above.

[8] = tested on: gene expression in MTC TT cells; test: RT-PCR / real-time PCR gene expression, TT cells; format: cell-based
Procedure: as §5

[9] = tested on: cervical cancer Hela cells; test: VPA-induced cell morphological change, Hela cells; format: cell-based, Human; settings: VPA at 8 mM in FIG. 25
Description: (§6) The cancer cells were inspected and photographed under an inverted light microscope at 10× magnification.

osteosarcoma U2OS cells = test: VPA-induced cell morphological change, U2OS cells; format: cell-based, Human
Description: as §6

[10] = tested on: pancreatic carcinoid BON cells; test: VPA-induced cell morphological change, BON cells; format: cell-based, Human
Description: as §6

lung cancer A549 cells [11] = test: VPA-induced cell morphological change, A549 cells; format: cell-based
Description: as §6

SCLC DMS53 cells = test: VPA-induced cell morphological change, DMS53 cells; format: cell-based
Description: as §6

cancer DU-145 cells = test: VPA-induced cell morphological change, DU-145 cells; format: cell-based
Description: as §6

Jurkat cells = test: VPA-induced cell morphological change, Jurkat cells; format: cell-based
Description: as §6

[12] = tested on: ovarian cancer NCI/ADR-RES cells; test: VPA-induced cell morphological change, NCI/ADR-RES cells; format: cell-based
Description: as §6

MTC TT cells = test: VPA-induced cell morphological change, TT cells; format: cell-based
Description: as §6

CCCC(CCC)C(=O)O [VPA, valproic acid]
cell growth suppression (MTT), in words [1]: displayed its anti-proliferative ability; also recorded: displays its anti-proliferation ability | cell growth suppression (MTT), in words [2]: displayed its anti-proliferative ability | cell growth suppression (MTT), in words [3]: displayed its anti-proliferative ability; also recorded: displays its anti-proliferation ability | cell growth suppression (MTT), in words (lung cancer A549 cells [4]): little effect; also recorded: not apparent | cell growth suppression (MTT), in words [5]: displayed its anti-proliferative ability | cell growth suppression (MTT), in words (hepatoma HTB-52 cells): displayed its anti-proliferative ability | tumor inhibitory rate ([6]; BON tumors in nude mice, VPA at 200 mg/kg s.c. once a day, five times a week): 47.9% | suppression of BON tumors, in words ([6]; nude mice): induced suppression | effect on expression of SST, BN and PACAP receptors (RT-PCR), in words ([7]; DMS53 cells, VPA treatment, FIG. 55): SSTR2 (5.4-fold, confirmed by real-time PCR), SSTR3, GRPR, and PAC1 increased, with no obvious change in SSTR1, SSTR2, VPAC1, NMBR, and BRS3 | increase of SSTR2 expression ([7]; DMS53 cells, VPA treatment, confirmed by real-time PCR): 5.4 fold | effect on expression of Notch receptors (RT-PCR), in words ([7]; DMS-53 cells, VPA at serial doses, FIG. 52): increased the expression of Notch1 and Notch2, with no obvious change of expression in the others | VPA-induced Notch1 increase ([7]; DMS-53 cells, real-time PCR): > 2 fold | effect on expression of Notch receptors (RT-PCR), in words ([8]; VPA at serial doses, FIG. 52): significantly increase Notch1, Notch2, and Notch3, with a decrease of Notch4 expression | effect on expression of SST, BN and PACAP receptors (RT-PCR), in words ([8]; VPA treatment, FIG. 55): SSTR2 (2.2-fold, confirmed by real-time PCR), BRS3, NMBR, and VPAC2 increased and SSTR3 and VPAC1 decreased, with no obvious change in the others | increase of SSTR2 expression ([8]; VPA treatment, confirmed by real-time PCR): 2.2 fold | cell morphological change, in words [9]: could induce morphological change | cell morphological change, in words (osteosarcoma U2OS cells): could induce morphological change | cell morphological change, in words [10]: could induce morphological change | cell morphological change, in words (lung cancer A549 cells [11]): no effect | cell morphological change, in words (SCLC DMS53 cells): no effect | cell morphological change, in words (cancer DU-145 cells): no effect | cell morphological change, in words (Jurkat cells): no effect | cell morphological change, in words [12]: no effect | cell morphological change, in words (MTC TT cells): no effect

Reference: patent US9358272B2, “Multicomponent compositions and their uses” (THE ADMINISTRATORS OF THE TULANE EDUCATIONAL FUND, priority 2011, dated 2016)
